Data taken from US6784160B1, “Biologically active pregnene compounds” (Harbor Branch Oceanographic Institution, Inc., priority 2002, dated 2004).

Experiments:
Format in all cases: cell-based
[1] = test system: P388 murine leukemia cell line; assay: In vitro proliferation of P388 cells (MTT); settings: Mus musculus, 48-h exposure, read-out: P388 (IC50 μg/ml)
Procedure: (§1) Swiftiapregnene was analyzed as to its effect on the proliferation of PANC-1 human pancreatic and P388 murine leukemia cell lines. P388 cells were obtained from Dr. R. Camalier, National Cancer Institute, Bethesda, Md., and PANC-1 cells were obtained from American Type Culture Collection, Rockville, Md. All cell lines were maintained in tissue culture medium (TCM; Roswell Park Memorial Institute RPMI 1640 supplemented with 100 U/mL penicillin, […] streptomycin, […] 1-glutamine, 18 mM HEPES, 0.05 mg/mL gentamicin (Life Technologies, Gaithersburg, Md.) and 10% fetal bovine serum) and cultured in plastic tissue culture flasks at 37° C. in humidified air containing 5% CO2. Stock cultures of P388 cells were subcultured 1:20 in fresh TCM every 2 to 3 days. Stock cultures of A549 cells were subcultured 1:10 every 3 to 4 days. To assess the antiproliferative effects of agents against the cells, […] cultures (96-well tissue culture plates, Nunc, Denmark) were established at 1×10^5 cells/mL in TCM or TCM containing the test agent at 0.03-5.0 μg/mL. After 48-h exposures, P388 cells were enumerated using 3-[4,5-dimethylthiazol-2-yl]-2,5-diphenyltetrazolium bromide (MTT) as described in the literature (M. C. Alley, et al., Cancer Res. 48:589, 1988). […] The results were expressed as percent inhibition compared to the negative (no drug) control. […]

[2] = test system: A549 human lung cells; assay: Cell cycle progression by flow cytometry (propidium iodide); settings: 100 μg/ml, 24 hr
Procedure: Cell cycle studies were initiated in order to pinpoint a specific phase within the cell cycle in which discodermolide analogs were exerting their antiproliferative effect. A549 human lung cells were used as cell cycle targets to compare the effects of discodermolide and discodermolide analogs on perturbation of the cell cycle. Cell cycle analyses were performed as follows: A549 cells were incubated at 37° C. in 5% CO2 in air in the presence or absence of varying concentrations of discodermolide or discodermolide analogs for 24 hr. Cells were harvested, fixed in ethanol, washed, and stained with 0.2 mg/mL of propidium iodide (P.I.) together with 0.1 mg/mL of RNAse A. Stained preparations were analyzed on a Coulter EPICS ELITE flow cytometer with 488 nm excitation. Fluorescence measurements and resulting DNA histograms were collected from at least 10,000 P.I. stained cells at an emission wavelength of 690 nm. Raw histogram data was further analyzed using a cell cycle analysis program (Multicycle, Phoenix Flow Systems).

[3] = test system: PANC-1 human pancreatic cell line; assay: In vitro proliferation of PANC-1 cells (MTT); settings: 72 hours exposure, read-out: PANC-1 (IC50 μg/ml)
Procedure: as §1

For `C=CC1CCC2C3CC=C4CC(OC5OC(C)C(O)C(O)C5OC(C)=O)CCC4(C)C3CCC12C` (stereo not drawn) [Swiftiapregnene (I), Swiftiapregnene], the IC50 [1] was 21 µg/mL, the “effect on cell cycle (sub-G1 population)” value [2] was “increase in the sub-G1 population” and the IC50 [3] was 7.4 µg/mL.
